Tests used:
[1] = target: T1, BKCa channels (rat KCNMA, rSlo α) (Rattus norvegicus, UniProt Q62976); assay: Macroscopic current recording, outside-out patch clamp, BKCa channels expressed in Xenopus oocytes; assay type: cell-based
T1 construct: expressed in transfected cells; host or cells: Xenopus laevis oocytes injected with cRNA
From the text: (§1) The complete coding sequence (CDS) of each of rat KCNMA (rSlo α) (GenBank AF135265.1), KCNMB1 (rSlo 01) (GenBank FJ154955.1) and KCNMB4 (rSlo β4) (GenBank AY028605) was subcloned into pNBC2.0 or pNBC2.0. These vectors were designed to be expressed in Xenopus oocytes (Ha, T. S., Lim, H. H., Lee, G. E., Kim, Y. C., & Park, C. S. (2006). Electrophysiological characterization of benzofuroindole-induced potentiation of large-conductance Ca2+-activated K+ channels. Mol Pharmacol, 69(3), 1007-1014). The plasmid was linearized by NotI and complementary RNA (cRNA) was synthesized using the Ambion T7 mMESSAGE mMACHINE kit (Invitrogen, Carlsbad, CA, USA) according to the manufacturer's instructions. Xenopus laevis (KXRCR000001) was obtained from the Korea Xenopus Resource Center for Research (Chuncheon-si, Gangwon-do, Korea). Stage V-VI oocytes were surgically extracted from the ovarian lobes of X. laevis. A follicular cell layer was removed by culturing in Ca^2+-free oocyte Ringer's medium (86 mM NaCl, 1.5 mM KCl, 2 mM MgCl2 and 10 mM HEPES, pH 7.6) containing collagenase for 1.5 hours at room temperature. Oocytes without follicular layer were washed with ND-96 medium (96 mM NaCl, 2 mM KCl, 1.8 mM CaCl2), 1 mM MgCl2, 5 mM HEPES, […] gentamicin, pH 7.6). The prepared oocytes were stabilized overnight at 18° C. cRNA was injected into each oocyte (50 ng per oocyte) using a microdispenser (Drummond Scientific, Broomall, PA, USA). For co-expression of the β subunits, cRNA was mixed at a molar ratio of 1:12 (α:β) to induce sufficient co-assembly of the R subunits. After injection of cRNA, the oocytes were cultured in ND-96 medium for 1-3 days at 18° C. Before recording macroscopic currents, vitelline membranes of the oocytes were completely removed using fine forceps.
All macroscopic current recordings in the BKCa channels were performed using the gigaohm-seal patch-clamp method in an outside-out configuration (Ha et al., 2006). A patch pipette was made of borosilicate glass (WPI, Sarasota, FL, USA) and fire-polished by a resistance of 3-5 MQ. Ion currents were amplified using an Axopatch 200B amplifier (Molecular Devices). The currents were low-pass filtered at 1 kHz using a four-pole Bessel filter and digitized at a rate of 10 or 20 points/ms using a Digidata 1200A interface (Molecular Devices). The BKCa channels were activated by repeated voltage clamps at +100 mV or by voltage clamp pulses ranging from −80 to +200 mV with an increment of 10 mV. The resting potential was maintained at −100 mV. The recording solution contained 116 mM KOH, 4 mM KCl, 10 mM HEPES, and 5 mM EGTA (pH 7.2). The intracellular solution contained 3 μM Ca^2+ in the recording solution (pH 7.0). MaxChelator program was used to calculate the total amount of Ca^2+ to be added to the intracellular solution for obtaining free Ca^2+ at a concentration of 3 μM.
The commercial software Clampex 8.0 (Molecular Device) and Origin 9.1 (OriginLab Corp., Northampton, MA, USA) were used for data analysis and fitting of the macroscopic currents. A conductance-voltage (G-V) curve obtained from the external current was fitted by the Boltzmann equation [y=(Gmax−Gmin)/{1+exp[(V1/2−x)/k]}+Gmin]. Wherein k is RT/zF, and wherein R is a gas constant, T is a temperature, F is the Faraday's constant, and z is a gating charge. Gmax is the maximum conductivity and V1/2 is a voltage for half maximum conductivity. The concentration-dependent V1/2 shift was fitted by the Hill equation [y=AVi/2,max x^n/(EC50^n+x^n)]. Wherein ΔV1/2,max is a constant. EC50 is half the apparent maximum effective concentration and n is the Hill coefficient. By definition, the apparent dissociation constant KD was obtained by EC50^n. The association time constant (r association) was obtained by fitting the exponential equation [y=A exp(−x/τ)+C]. Wherein A and C are constants and τ is the time to reach (1−1/e) ( ? 63%) of the maximum current level. […]

[2] = target: T2, BKCa channels co-expressed with the β1 subunit (rSlo α + KCNMB1) (Rattus norvegicus, UniProt Q62976); assay: Macroscopic current recording, BKCa channels co-expressed with β1 subunits in Xenopus oocytes; assay type: cell-based; conditions: 10 μM
T2 construct: expressed in transfected cells; host or cells: Xenopus laevis oocytes, cRNA alpha:beta 1:12
From the text: as §1
(§2) All macroscopic current recordings in the BKCa channels were performed using the gigaohm-seal patch-clamp method in an outside-out configuration (Ha et al., 2006). A patch pipette was made of borosilicate glass (WPI, Sarasota, FL, USA) and fire-polished by a resistance of 3-5 MQ. […]

[3] = target: T3, BKCa channels co-expressed with the β4 subunits (rSlo α + KCNMB4) (Rattus norvegicus, UniProt Q62976); assay: Macroscopic current recording, BKCa channels co-expressed with β4 subunits in Xenopus oocytes; assay type: cell-based; conditions: 10 μM
T3 construct: expressed in transfected cells; host or cells: Xenopus laevis oocytes, cRNA alpha:beta 1:12
From the text: as §1, §2

[4] = system: Spontaneously hypertensive rats (SHR); assay: In vivo model of OAB: urination in spontaneously hypertensive rats after oral administration; set-up: species or system rat; conditions: 3 hours
Experimental: Male rats with body weights of 300 to 350 g were deprived of food and water overnight before the experiment, and then were randomly divided into a drug administration group and a control group. All animals were provided free access to water for 2 hours, and then 10 mL/kg of vehicle solution [DMSO:PEG400:distilled water=5:40:55 (v/v)] as a test substance were orally administered. After oral administration of the test substance, the rats were placed in a metabolic cage and the number of urinations and urine volume were measured for 3 hours.
The in vivo treatment effects of the compounds for […] were investigated in spontaneously hypertensive rats (SHR) with OAB symptoms after oral administration. Wistar-Kyoto rats (WKY) were used as the healthy animal control, and urination frequency was increased more than 2.8 times in SHR compared to WKY. Compound 208 reduced the urination frequency in SHR (50 mg/kg) by 33%, which is quite close to the urination frequency of the normal group (see FIG. 18).

[5] = washout after 10 μM, double exponential fit

T3 sequence (Q62976 whole entry): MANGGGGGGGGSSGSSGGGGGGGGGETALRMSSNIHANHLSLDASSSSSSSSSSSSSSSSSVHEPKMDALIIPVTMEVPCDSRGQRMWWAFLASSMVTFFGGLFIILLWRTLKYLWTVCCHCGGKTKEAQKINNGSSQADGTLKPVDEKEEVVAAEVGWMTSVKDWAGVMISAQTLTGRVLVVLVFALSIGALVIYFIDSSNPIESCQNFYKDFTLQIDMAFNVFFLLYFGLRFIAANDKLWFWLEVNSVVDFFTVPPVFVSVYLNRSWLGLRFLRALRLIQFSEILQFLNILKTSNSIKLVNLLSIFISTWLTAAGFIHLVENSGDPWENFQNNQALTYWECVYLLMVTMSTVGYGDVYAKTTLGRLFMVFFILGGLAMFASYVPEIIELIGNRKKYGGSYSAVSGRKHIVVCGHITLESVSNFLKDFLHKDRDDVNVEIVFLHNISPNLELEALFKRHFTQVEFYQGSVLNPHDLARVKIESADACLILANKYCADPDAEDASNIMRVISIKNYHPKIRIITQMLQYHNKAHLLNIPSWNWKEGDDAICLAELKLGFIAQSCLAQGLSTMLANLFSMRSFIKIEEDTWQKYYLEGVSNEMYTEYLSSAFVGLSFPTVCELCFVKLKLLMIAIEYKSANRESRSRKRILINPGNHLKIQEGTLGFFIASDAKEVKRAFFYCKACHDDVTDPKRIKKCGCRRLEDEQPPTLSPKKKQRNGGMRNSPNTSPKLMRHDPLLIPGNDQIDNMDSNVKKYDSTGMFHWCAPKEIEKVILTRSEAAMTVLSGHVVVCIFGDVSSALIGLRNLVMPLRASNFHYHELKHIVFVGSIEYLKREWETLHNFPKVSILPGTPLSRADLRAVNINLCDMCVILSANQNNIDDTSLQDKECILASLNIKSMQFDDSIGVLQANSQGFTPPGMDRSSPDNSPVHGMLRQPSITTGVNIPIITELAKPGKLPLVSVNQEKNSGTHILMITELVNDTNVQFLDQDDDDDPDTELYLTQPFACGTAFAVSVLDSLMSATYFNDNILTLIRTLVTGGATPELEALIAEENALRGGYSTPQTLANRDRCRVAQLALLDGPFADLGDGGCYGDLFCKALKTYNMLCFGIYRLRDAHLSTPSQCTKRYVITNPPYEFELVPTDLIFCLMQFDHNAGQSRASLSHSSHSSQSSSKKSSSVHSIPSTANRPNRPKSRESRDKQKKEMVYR
T3 sequence (Q9ESK8 whole entry partner): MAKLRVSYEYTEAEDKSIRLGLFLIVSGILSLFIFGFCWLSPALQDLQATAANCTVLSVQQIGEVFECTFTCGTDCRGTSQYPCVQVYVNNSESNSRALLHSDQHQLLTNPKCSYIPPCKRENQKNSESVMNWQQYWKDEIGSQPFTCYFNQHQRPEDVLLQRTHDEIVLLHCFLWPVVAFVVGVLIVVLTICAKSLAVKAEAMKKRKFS
T2 sequence (Q62976 whole entry): as the sequence (Q62976 whole entry) above
T2 sequence (P97678 whole entry partner): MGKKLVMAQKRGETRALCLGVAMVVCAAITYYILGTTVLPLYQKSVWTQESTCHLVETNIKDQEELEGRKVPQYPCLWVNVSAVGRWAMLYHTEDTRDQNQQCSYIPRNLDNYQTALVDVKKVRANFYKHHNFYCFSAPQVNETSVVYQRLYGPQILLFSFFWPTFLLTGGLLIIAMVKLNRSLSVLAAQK
T1 sequence (Q62976 whole entry): as the sequence (Q62976 whole entry) above

## Cc1cccc(NC(=O)c2sc(=S)n3c2[nH]c(=O)c2cc(Br)ccc23)c1 [TTQC-1, 7-bromo-5-oxo-1-thioxo-N-(m-tolyl)-4,5-dihydro-1H-thiazolo[3,4-a]quinazoline-3-carboxamide]
[1]; 10 μM
  effect on channel activation time constant (τ activation): did not show significant changes
[1]; 10 μM, +100 mV pulses, 3 μM intracellular Ca2+
  association time constant (τ association): 11.7 ± 1.77 s
[1]; 10 μM, at +200 mV
  increase of channel deactivation time constant (τ deactivation): 5.3 times
[1]; 30 μM
  half-activation voltage (V1/2): 37.9±7.50 mV
  increase of maximum conductance (Gmax) compared to vehicle (G0max): 1.4±0.11 times
[1]; 0.1-30 μM, 3 μM intracellular Ca2+, read-out: apparent EC50 of V1/2 shift (Hill equation)
  EC50: 2.8 µM
[1]; fit of V1/2 shift
  Hill coefficient n: 2.0
[1]; washout after 10 μM
  Afast (amplitude of fast dissociation component): 0.49±0.064
  Aslow (amplitude of slow dissociation component): 0.53±0.054
[1]; [5]
  dissociation time constant, fast component: 7.8 ± 1.10 s
  dissociation time constant, slow component: 136.2 ± 11.24 s
[2]
  effect on τ activation: changed the τ activation only at 190 mV
[2]; at 180 mV
  increase of τ deactivation: 4.6 times
[2]; β1 co-expressed
  shift of G-V curve to the left: 23.0±2.67 mV
[3]
  effect on τ activation: did not significantly affect
[3]; at 170 mV
  increase of τ deactivation: 3.7 times
[3]; β4 co-expressed
  shift of G-V curve to the left: 7.12±0.65 mV
[4]; 10 mg/kg oral, SHR vehicle 8.2
  number of urinary events: 3.0
[4]; oral
  total urine volume: significantly reduced

— US20240398813A1, “PHARMACEUTICAL COMPOSITION FOR PREVENTING OR TREATING OVERACTIVE BLADDER” (GWANGJU INSTITUTE OF SCIENCE AND TECHNOLOGY, priority 2021, published 2024)
